Here are results for six molecules from patent publication US20070149457A1, “Stable solid forms of enterostatin” (priority 2005, published 2007).

Series [1] can be described thus: Humidity stress experiments at 58% relative humidity. Format: physicochemical. Particulars: for Observations after humidity stress: 58% RH; for Physical state after humidity stress: 58% relative humidity for 4 or 10 days. The text has this: A sample of this enterostatin acetate, 1-hydroxy-2-naphthoic acid co-complex of the invention was stressed at 58% relative humidity for 4 or 10 days.
A sample of this enterostatin chloride, 1-hydroxy-2-naphthoic acid co-complex of the invention was stressed at 58% relative humidity for 4 or 10 days.
A sample of each co-complex of the above examples was stressed at 58% relative humidity for either 4 or 10 days.
The cocrystal guests piperazine and 1-OH-2-napthoic acid were stressed at 58% relative humidity.

The nature of series [2]: Moisture balance (weight change with relative humidity). Type of series: physicochemical. As to the method: Analytical techniques discussed below were conventional unless otherwise specified. In particular, differential scanning calorimetry and moisture balance experiments were carried out according to standard techniques. NMR was in D2O.
FIG. 3 provides moisture balance of this enterostatin acetate, 1-hydroxy-2-naphthoic acid co-complex of the invention.

Take “Enterostatin Acetate, 1-Hydroxy-2-naphthoic Acid [Example 2]”: the “Observations after humidity stress” value in series [1] (4 days) is listed as “Bits, broken glass”. Moreover, the “Physical state after humidity stress” value in series [1] is reported as “remained solid”. Further, in series [2] (from 5 to 95% relative humidity), the “weight gain (moisture balance)” value is 22%. For the same molecule, the “weight loss (moisture balance)” value in series [2] (from 95 to 5% relative humidity) is on record as 24%.

As to `C1CNCCN1` [Piperazine, reference compound], the “Observations after humidity stress” value in series [1] (5 days) and in series [1] (14 days) was “Oil puddle” throughout.

For “Enterostatin Sulfate, Hippuric Acid [Example 7]”, the “Observations after humidity stress” value in series [1] (10 days) is “Tacky white goo”.

Consider “Enterostatin Chloride, Camphoric Acid [Example 5]”, for which the “Observations after humidity stress” value in series [1] (10 days) is “Deliquesced”.

Turning to “Enterostatin Chloride, 1-Hydroxy-2-naphthoic Acid [Example 3]”, in series [1] (4 days), the “Observations after humidity stress” value was “Irregulars, chunks”. The “Physical state after humidity stress” value in series [1] is on record as “remained solid”.

For `O=C(O)c1ccc2ccccc2c1O` [1-OH-2-napthoic acid, reference compound], the “Observations after humidity stress” value is “Light brown chunks” in series [1] (14 days) and “remained a solid” in series [1] (14 days, listed as 1-OH-2-napthoic).
